Data on eight molecules can be found in patent US20210267929A1, “COMPOSITIONS AND METHODS FOR TREATMENT OF ORAL ULCERATION AND ORAL MUCOSITIS” (CelaCare Technologies, Inc., priority 2018, published 2021).

≈ marks a conversion by molar mass, not a printed value.

For series [1], the system named is Issatchenkia orientalis ATCC 5258 (formerly known as Candida krusei). To be noted: expected control range; cited from earlier work.
For series [2], the system named is Candida albicans ATCC 24433. Description: Broth microdilution MIC (CLSI M27), oral rinses, silver API and controls. In kind it is cell-based. Particulars: 35° C., 24 hours, at least 50% OD530 inhibition; for MIC: ATCC24433, CLSI M27, RPMI, read-out: MIC (mg/L) Mean. On the procedure: (§1) This experiment tested two examples of the oral rinse in the treatment of three different Candida organisms associated with oral mucositis. The embodiments of the Oral Rinses tested in this experiment were: • Oral Rinse 170915-10 μg/mL silver citrate complex, 4 mg/mL acemannan, 5 mg/mL Disodium EDTA, 0.1 mg/mL Hyaluronic acid, 2 mg/mL PVP, 5.75 mg/ml of masking and cherry flavor, purified water, pH adjustment with tris(hydroxymethyl)aminomethane to a pH of 6.36. • Oral Rinse 170719-8 μg/mL silver citrate complex, 3.9 mg/mL acemannan, 5 mg/mL Disodium EDTA, 0.1 mg/mL Hyaluronic acid, 2 mg/mL PVP, 5.75 mg/ml of masking agent and cherry flavor, purified water, pH adjustment with tris(hydroxymethyl)aminomethane to a pH of 6.38.
(§2) The antimicrobial activity of two oral rinse solutions as described above, Example 2, was tested using the microtube dilution method described in the Clinical and Laboratory Standards Institute (CLSI) Reference Method for Broth Dilution Antifungal Susceptibility Testing of Yeasts, M27-4. In brief, a standard inoculum of each microorganism was prepared by diluting a 0.5 MacFarland turbidity standard of the microorganism 1:100 in RPMI media without sodium bicarbonate. Then, 100 μL of the standard inoculum was added to equal volumes of two-fold serial dilutions of the silver API (active pharmaceutical ingredient, silver citrate complex), controls, or the oral rinse solution, and the plates were incubated at 35° C. for 24 hours. MICs were determined photometrically as the lowest antimicrobial agent concentration (last well in the dilution series) that inhibited OD530 absorbance at least 50%. Each experiment was performed three times, with each antimicrobial agent tested in duplicate or triplicate.

Series [3] relates to Candida parapsilosis ATCC 22019. Described as above. Particulars: 35° C., 24 hours, at least 50% OD530 inhibition; for MIC: Lodderomyces parapsilosis, ATCC22019, CLSI M27, RPMI, read-out: MIC (mg/L) Mean. In kind it is cell-based. On the procedure: as §1, §2
Series [4] relates to Issatchenkia orientalis ATCC 5258 (formerly known as Candida krusei). Described as above. In kind it is cell-based. Particulars: 35° C., 24 hours, at least 50% OD530 inhibition; for MIC: Pichia kudriavzevii, ATCC5258, CLSI M27, RPMI, read-out: MIC (mg/L) Mean. On the procedure: as §1, §2
The test system of series [5] is Candida parapsilosis ATCC 22019. To be noted: expected control range; cited from earlier work.
The test system of series [6] is Candida glabrata ATCC 15126. Description: Broth microdilution MIC (EUCAST), oral rinse vs marketed antifungals. In kind it is cell-based. To be noted: 35° C., 48 hours, at least 50% OD530 inhibition; for MIC: Nakaseomyces glabratus, ATCC15126, RPMI + 2% glucose, read-out: MIC (mg/L) Mean. From the text:
(§3) The purpose of this experiment was to determine the potency of one embodiment of the oral rinse on different Candida species, namely Candida albicansATCC 10231 and ATCC 24433, Candida glabrataATCC 15126, Candida krusei (Issechenkia orientalis)ATCC 6258, Candida parapsilosisATCC 22019, and Candida tropicalisATCC 1369, to determine the minimum inhibitory concentration (MIC) of the oral rinse on each species. The oral rinse was compared to current antifungal treatments on the market.
(§4) The embodiment of the oral rinse 150528 tested in this experiment included 10 μg/mL silver citrate complex, 3 mg/mL acemannan, 5 mg/mL Disodium EDTA, 0.1 mg/mL Hyaluronic acid, 2 mg/mL PVP, 3.5 mg/ml of masking and cherry flavor, purified water, pH adjustment with tris(hydroxymethyl)aminomethane to a pH of 6.59. The current antifungal treatments that were tested and compared were Fluconazole (Sigma-Aldrich, Cat: PHR1160-1G, Lot LRAA6502) a Nystatin suspension (Sigma-Aldrich, Cat: N6261-SMU, Lot 020M13491V), and Gentian Violet (1% Humco, Cat: NDC 0395-1003-92, Lot547845).
(§5) The antimicrobial activity of the oral rinse solution as described above, Example 1, was tested using the micro-tube dilution method described in the Method for Determination of Broth Dilution MICs of Antifungal agents for fermentative yeasts, published by the European Committee for Antimicrobial Susceptibility Testing (EUCAST). In brief, a standard inoculum of each microorganism was prepared by diluting a 0.5 MacFarland turbidity standard of the microorganism 1:100 in RPMI media without sodium bicarbonate plus 2% glucose. Then, 100 μL of the standard inoculum was added to equal volumes of two-fold serial dilutions of the oral rinse solution or controls, and the plates were incubated at 35° C. for 48 hours. MICs were determined photometrically as the lowest antimicrobial agent concentration (last well in the dilution series) that inhibited OD530 absorbance at least 50%. Each experiment was performed three times, with each antimicrobial agent tested in duplicate or triplicate.

Series [7] concerns Candida albicans ATCC 24433. The description is as above. In kind it is cell-based. To be noted: 35° C., 48 hours, at least 50% OD530 inhibition; for MIC: ATCC24433, RPMI + 2% glucose, read-out: MIC (mg/L) Mean.
Description: as §3, §4, §5

The test system of series [8] is Issatchenkia orientalis ATCC 6258 (formerly known as Candida krusei). The description is as above. In kind it is cell-based. To be noted: 35° C., 48 hours, at least 50% OD530 inhibition; for MIC: Pichia kudriavzevii, ATCC6258, RPMI + 2% glucose, read-out: MIC (mg/L) Mean.
Description: as §3, §4, §5

The subject of series [9] is Candida tropicalis ATCC 1369. The series is described as above. To be noted: 35° C., 48 hours, at least 50% OD530 inhibition; for MIC: ATCC1369, RPMI + 2% glucose, read-out: MIC (mg/L) Mean. In kind it is cell-based.
Description: as §3, §4, §5

Series [10] has as its system Candida parapsilosis ATCC 22019. The description is as above. In kind it is cell-based. To be noted: 35° C., 48 hours, at least 50% OD530 inhibition; for MIC: Lodderomyces parapsilosis, ATCC22019, RPMI + 2% glucose, read-out: MIC (mg/L) Mean.
Description: as §3, §4, §5

The subject of series [11] is Candida albicans ATCC 10231. Described as above. In kind it is cell-based. To be noted: 35° C., 48 hours, at least 50% OD530 inhibition; for MIC: ATCC10231, RPMI + 2% glucose, read-out: MIC (mg/L) Mean.
Description: as §3, §4, §5

For series [12], the system named is Staphylococcus aureus ATCC 29213. To be noted: expected control range; cited from earlier work.
Series [13] has the same test system. Description: Microtube dilution MIC (CLSI M07), oral rinses vs vancomycin. In kind it is cell-based. Particulars: ATCC29213, read-out: MIC (mg/L) Mean. From the text: The purpose of this experiment was to determine the potency of one embodiment of the oral rinse on three common gram-positive cocci species tested: Staphylococcus aureus, Streptococcus pneumoniae, Streptococcus pyogenes by determining the minimal inhibitory concentrations (MIC) of the oral rinse on each species. The oral rinse was compared to vancomycin, a common antibiotic used to treat various infections.
The embodiment of the oral rinses (170915 and 171003) tested in this experiment included 10 ug/mL silver citrate complex, 4 mg/mL acemannan, 5 mg/mL Disodium EDTA, 0.1 mg/mL Hyaluronic acid, 2 mg/mL PVP, […] of masking and cherry flavor, purified water, and pH adjustment with tris(hydroxymethyl)aminomethane to a pH of 6.36 and pH of 6.40, respectively. The vancomycin control (Sigma-Aldrich, Cat: PHR1160-1G, Lot LRAA9717, 5120 ppm) was reconstituted 20.5 mg/4 mL RO water.
The antimicrobial activity of this embodiment of the oral rinse solution was tested using the microtube dilution method for determining minimal inhibitory concentrations (MIC) described in the Clinical and Laboratory Standards (CLSI) Methods for Dilution Antimicrobial Susceptibility Tests for Bacteria that Grow Aerobically, M07, 11th ed, Approved January 2018. […]

Series [14] deals with Streptococcus pneumoniae ATCC 49619. Particulars: expected control range; cited from earlier work.
For series [15] the following is noted: total body contents from past cases; cited from earlier work.
For series [16] the following is noted: estimated from animal studies in mice, rats, dogs, and monkeys; cited from earlier work.
The conditions of series [17]: according to the EPA; cited from earlier work.
Another series relates to healthy patients. Particulars: in vivo; cited from earlier work.
The format of series [18] is cell-based. The method, then: The product has been evaluated for cytotoxicity and deemed to be non-cytotoxic using a standard protocol at a GLP laboratory. […] A safety study for acemannan in humans was conducted to evaluate its effect in the treatment of oral aphthous ulcers. The initial study of 50 healthy patients received 0.5% acemannan incorporated into a Carbopol thickener applied to the oral mucosa of the lower lip three times a day for 7 days. Oral exams and kidney and liver function were evaluated prior to and at the end of the study. […] Since the present compositions are utilized as an oral rinse, acemannan is not expected to be absorbed systemically through the mucosa and will merely coat the patients' mouths. Acemannan has also previously been cleared to market in oral device products. Based on current safety data on the ingredients incorporated into the compositions and the 14-day duration of use for patients in the study, the compositions will not provide significant patient risks when dosed as intended.

Consider `OC(Cn1cncn1)(Cn1cncn1)c1ccc(F)cc1F` [Fluconazole], for which the “MIC Control Range” value is 8 to 64 mg/L in series [1] and 0.5 to 4.0 mg/L in [5]. In addition, the MIC came out at 0.583 mg/L (≈ 1.9 µM) in [2]; 1.67 mg/L (≈ 5.44 µM) in series [3]; 14.7 mg/L (≈ 47.9 µM) in series [4]; 7.3 mg/L in series [6]; 0.5 mg/L in series [7]; 24 mg/L in [8]. The values for the MIC in [9], in series [10] and in series [11] were 0.5 mg/L, 1.2 mg/L and 1.2 mg/L, respectively.
With `Nc1[nH]c(=O)ncc1F` [Flucytosine], the “MIC Control Range” value in series [1] is 4 to 16 mg/L; in [5], 0.06 to 0.25 mg/L. The MIC is 0.25 mg/L (≈ 1.94 µM) in series [2], 0.063 mg/L (≈ 0.488 µM) in series [3] and 3.67 mg/L (≈ 28.4 µM) in series [4].
With `CN(C)c1ccc(C(=C2C=CC(=[N+](C)C)C=C2)c2ccc(N(C)C)cc2)cc1` [Gentian Violet], the MIC worked out at 1.02 mg/L in series [6]; 0.3 mg/L in series [7]; 0.3 mg/L in [8]; 0.3 mg/L in series [9]; 0.2 mg/L in [10]; 0.3 mg/L in [11].
With `C[C@@H]1[C@H](O)[C@@H](C)/C=C/C=C/CC/C=C/C=C/C=C/C=C/C(O[C@H]2O[C@H](C)[C@@H](O)[C@H](N)[C@@H]2O)CC2O[C@](O)(CC(O)C(O)CCC(O)CC(O)CC(O)CC(=O)O[C@H]1C)CC(O)C2C(=O)O` (stereo partly shown) [Nystatin], the “MIC (mg/L) Mean” value stood at 2.7 mg/L in series [6] (RPMI + 2% glucose); 4.8 mg/L in series [7] (RPMI + 2% glucose); 5.4 mg/L in series [8] (RPMI + 2% glucose); 2.2 mg/L in series [9] (RPMI + 2% glucose); 2.7 mg/L in series [10] (RPMI + 2% glucose); 3.9 mg/L in series [11] (RPMI + 2% glucose).
Take `CN[C@H](CC(C)C)C(=O)N[C@H]1C(=O)N[C@@H](CC(N)=O)C(=O)N[C@H]2C(=O)N[C@H]3C(=O)N[C@H](C(=O)N[C@H](C(=O)O)c4cc(O)cc(O)c4-c4cc3ccc4O)[C@H](O)c3ccc(c(Cl)c3)Oc3cc2cc(c3O[C@@H]2O[C@H](CO)[C@@H](O)[C@H](O)[C@H]2O[C@H]2C[C@](C)(N)[C@H](O)[C@H](C)O2)Oc2ccc(cc2Cl)[C@H]1O` [Vancomycin]: the “MIC Control Range” value in [12] is given as “Vancomycin (Control 0.5-2.0) mg/L”; in [14], “Vancomycin (Control 0.06-0.5) mg/L”. Moreover, the MIC in series [13] turned out to be 0.7 mg/L (≈ 0.483 µM).
Turning to `[Ag]` [silver], the “total amount of silver required to cause argyria” value in series [15] was 3.8 to 6.4 g. Moreover, in series [16], the “human elimination of silver from oral ingestion” value is on record as 90%. Besides, in [17], the “safe lifetime continuous exposure” value is given as 5 micrograms/kg/day.
With Silver citrate complex, the “MIC (mg/L) Mean” value in series [2] (CLSI M27, RPMI) is reported as 0.234 mg/L; in [3] (CLSI M27, RPMI) it was 0.088 mg/L; in series [4] (CLSI M27, RPMI), 0.117 mg/L.
Consider acemannan, for which, in the series on healthy patients, the “adverse effects or allergic reactions” value is “No patients reported adverse effects or allergic reactions”; the “pre- versus post-test blood values (kidney and liver function)” value is recorded as “no statistical difference”. In series [18], the cytotoxicity result is reported as “non-cytotoxic”.
